Source: patent US20130281524A1, “NOVEL TREATMENTS” (priority 2008, published 2013)
“Also recorded” adds a separate entry of the source.

Assays:
connexin 26 = assay: Immunohistochemistry of connexin 26 in trigeminal ganglia after TNF-α and capsaicin; type: in vivo, Sprague Dawley rats; settings: 10 mg/kg i.p. pre-treatment
Procedure: (§1) Sprague Dawley rats injected with True Blue were used to localize neuronal cell bodies in the ganglion and study neuron-glia signalling via gap junctions in the trigeminal ganglion. Dye coupling studies were conducted under basal conditions and in response to tumour necrosis factor-α injection into the whisker pad and/or capsaicin injection into the eyebrow. Changes in connexin 26 and active p38 levels were determined by immunohistochemistry.
(§2) In addition, the effect of tonabersat prior to chemical stimulation on gap junction activity and expression of connexins and active p38 was investigated.
Ganglia were collected from untreated animals or animals injected with TNF-α, capsaicin, or TNF-α and capsaicin as described above. Sections were fixed using 4% paraformaldehyde for 60 minutes, permeabilized with 0.3% Triton-X100 for 60 minutes, and then incubated in 5% donkey serum for another 60 minutes. Sections were then incubated overnight at 4° C. with primary antibodies against connexin 26 (1:500 in PBS; Chemicon, Temecula, Calif.) or active p38 MAP kinase (1:200; Cell Signaling Technology, Danvers, Mass.). […]

[1] = system: gap junction communication between neurons and satellite glial cells in the trigeminal ganglion; assay: Dye coupling studies (True Blue) of neuron-satellite glia gap junction signalling in trigeminal ganglion after TNF-α and capsaicin; type: in vivo, Sprague Dawley rats; settings: 10 mg/kg i.p. pre-treatment prior to TNF-α then capsaicin; V1 and V2 regions of ganglia
Procedure: as §1, §2
Young male rats (200-225 g) were brought to the lab and kept in a quiet environment for about 30 minutes. Rats were anesthetized by an intraperitoneal (i.p.) injection of 0.3 ml of ketamine and xylazine solution (800 mg and 60 mg in 10 ml, respectively; Sigma, St. Louis, Mo.). […] Initially, rats were injected with a fluorescent dye, True Blue (25 μl, 2 mg/ml in dimethyl sulfoxide, DMSO; Invitrogen, Eugene, Oreg.) in the whisker pad or eyebrow regions to retrogradely label neuronal cell bodies within the V1 and V2 regions of the trigeminal ganglion. Bilateral injections were performed using a 50 μL Hamilton syringe (Hamilton Company, Reno, Nev.) and a 261/2 G needle (Becton Dickinson, FranklinLakes, N.J.). […]

trigeminal nerve = settings: Parsons et al., Brit. J. Pharmacol. 2001, cited from earlier work
active p38 MAP kinase = assay: Immunohistochemistry of active p38 in trigeminal ganglia after TNF-α and capsaicin; type: in vivo, Sprague Dawley rats; settings: 10 mg/kg i.p. pre-treatment, neurons and satellite glial cells in V1 and V2 regions, compared to TNF-α and capsaicin treated animals
Procedure: as §1, §2
Ganglia were collected from untreated animals or animals injected with TNF-α, capsaicin, or TNF-α and capsaicin as described above. Sections were fixed using 4% paraformaldehyde for 60 minutes, permeabilized with 0.3% Triton-X100 for 60 minutes, and then incubated in 5% donkey serum for another 60 minutes. Sections were then incubated overnight at 4° C. with primary antibodies against connexin 26 (1:500 in PBS; Chemicon, Temecula, Calif.) or active p38 MAP kinase (1:200; Cell Signaling Technology, Danvers, Mass.). Immunoreactive proteins were visualized following incubation with Rhodamine Red Xconjugated donkey anti-rabbit antibodies (diluted 1:100 in PBS, Jackson Immuno-Research Laboratories, West Grove, Pa.) for 1 hour at room temperature and then mounted in Vectashield medium (H-1200) containing 4′,6 diamidino-2-phenylindole (DAPI) to allow for identification of neuronal and glial cell nuclei. As a control, some sections were incubated for 1 hour at room temperature with only the Rhodamine Red Xconjugated anti-rabbit antibodies. Images were collected as described above.
To determine whether TNF-α sensitization of capsaicin-responsive neurons could lead to increased expression of p38, animals were injected with TNF-α, capsaicin, or both agents and ganglion sections stained for the active phosphorylated form of p38. […]

## CC(=O)c1ccc2c(c1)[C@H](NC(=O)c1ccc(F)c(Cl)c1)[C@H](O)C(C)(C)O2 [tonabersat, cis-6-acetyl-4-(S)-(3-chloro-4-fluorobenzoylamino)-3,4-dihydro-2,2-dimethyl-2H-1-benzopyran-3-(S)-ol]
Connexin 26; V1 and V2 regions, compared to animals treated with TNF-α and capsaicin
  level of connexin 26 staining: greatly decreased; also recorded: decrease
Connexin 26; ganglia from TNF-α and capsaicin treated animals, higher magnification
  number of plaques observed between neurons and satellite glial cells: much lower
[1]
  stimulated dye movement between neurons and satellite glial cells (gap junction communication): greatly reduced; also recorded: decrease
Trigeminal nerve; 10 mg/kg, animal models
  trigeminal nerve activation: block
Trigeminal nerve
  trigeminal parasympathetic reflexes: blockade
Active p38 MAP kinase
  active p38 levels: greatly decreased; also recorded: blocked
  amount of nuclear staining of active p38: greatly decreased
Active p38 MAP kinase; listed as Tonabersat
  active p38 levels: lowered p38 levels to those observed in ganglia obtained from untreated control animals
